Measurements as given in article PMC11878259 (2025).

What was measured:
[1] = tested on: Cy5-labeled Broccoli (RNA, aptamer) GCCCGGAUAGCUCAGUCGGUAGAGCAGCGGAGACGGUCGGGUCCAGAUAUUCGUAUCUGUCGAGUAGAGUGUGGGCUCCGCGGGUCCAGGGUUCAAGUCCCUGUUCGGGCGCCA; assay: fluorescence imaging in RNA-peptide condensates; conditions: 100 mM K+, 1 mM Mg2+; 40 mM Tris pH 7.5, room temperature; 5 µM RNA; rU22 or rA22 with [RGRGG]5 or R10
[2] = tested on: U50G, C52A, A66U (eBroccoli) (RNA, aptamer) GCCCGGAUAGCUCAGUCGGUAGAGCAGCGGAGACGGUCGGGUCCAGAUAGUAGUAUCUGUCGAGUUGAGUGUGGGCUCCGCGGGUCCAGGGUUCAAGUCCCUGUUCGGGCGCCA; assay: fluorescence light-up, microplate; conditions: 0.5 mM K+, 10 mM Na+, 0.2 mM Mg2+, 0.1 mM Ca2+; 20 mM Tris pH 7.5; 25, 37, 45 °C; 0.5 µM RNA, 10 µM compound
[3] = tested on: Cy5-labeled eBroccoli (RNA, aptamer) GCCCGGAUAGCUCAGUCGGUAGAGCAGCGGAGACGGUCGGGUCCAGAUAGUAGUAUCUGUCGAGUUGAGUGUGGGCUCCGCGGGUCCAGGGUUCAAGUCCCUGUUCGGGCGCCA; assay: fluorescence imaging in RNA-peptide condensates; conditions: 100 mM K+, 1 mM Mg2+; 40 mM Tris pH 7.5, room temperature; 5 µM RNA; rU22 or rA22 with [RGRGG]5 or R10

Measured: binding

CC1=N/C(=C\c2cc(F)c(O)c(F)c2)C(=O)N1CC(F)(F)F
yes: all assays above
